Results on one compound are retold here after US6242438A, “3-Azetidinylalkylpiperidines or -pyrrolidines as tachykinin antagonists” (Pfizer Inc., priority 1996, dated 2001).

This assay has as its target T1, NK3 receptor (Cavia porcellus, UniProt P30098).
T1 construct: contractile effects of the selective NK3 receptor agonist senktide in the guinea-pig ileum; from tissue; host or cells: guinea-pig ileum
T1 sequence (P30098 1-440): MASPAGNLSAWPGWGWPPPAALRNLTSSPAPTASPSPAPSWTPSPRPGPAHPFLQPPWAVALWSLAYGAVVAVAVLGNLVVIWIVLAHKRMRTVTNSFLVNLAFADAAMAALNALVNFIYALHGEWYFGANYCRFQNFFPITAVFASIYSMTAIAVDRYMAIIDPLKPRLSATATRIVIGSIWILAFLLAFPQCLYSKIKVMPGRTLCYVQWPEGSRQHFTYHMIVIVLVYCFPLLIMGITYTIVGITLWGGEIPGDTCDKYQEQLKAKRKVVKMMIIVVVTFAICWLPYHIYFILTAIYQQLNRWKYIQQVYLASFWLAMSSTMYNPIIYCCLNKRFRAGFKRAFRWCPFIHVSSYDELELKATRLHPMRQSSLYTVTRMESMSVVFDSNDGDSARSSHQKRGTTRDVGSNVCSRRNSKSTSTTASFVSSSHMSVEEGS
Put plainly: NK3 receptor antagonist activity in vitro: antagonism of contractile effects of senktide in guinea-pig ileum. To be noted: antagonism of contractile effects of the selective NK3 receptor agonist senktide, read-out: pIC50 for NK3 activity (converted). The text has this:
The compounds of the formula (I) and their salts can be tested for NK3 receptor antagonist activity, in vitro, by testing their ability to antagonise the contractile effects of the selective NK3 receptor agonist senktide in the guinea-pig ileum using the method of Maggi et al, Br. J. Pharmacol., 101, 996-1000 (1 990).

Turning to `NS(=O)(=O)N1CCN(C2CN(CCCC3(c4ccc(Cl)c(Cl)c4)CCCN(C(=O)c4ccccc4)C3)C2)CC1` (stereo not shown) [Example 2], the IC50 was 3.98 nM.
